Test results: patent publication US20220125838A1, “IMMUNOMODULATORY GLYCOSPHINGOLIPIDS AND METHODS OF USE THEREOF” (President and Fellows of Harvard College, priority 2019, published 2022)

Test system: NKT cells
Test: In vivo cytokine assay (serum IL-2, IFN-γ, IL-4 after intraperitoneal injection)
Parameters: species or system mice
Settings: 1 μg per mouse intraperitoneally
Experimental: To investigate the relevance of structural variation to immunomodulatory function, an in vitro panel screening assay of synthetic BfaGCs was carried out in a co-culture system with bone marrow-derived dendritic cells (BMDCs) and NKT cells. Levels of interleukin 2 (IL-2) production in the presence of individual BfaGCs clearly distinguished two groups with different levels of NKT cell recognition: strong and weak stimulators (FIG. 3A). Strikingly, all 10 strong stimulators have branched (either ω-2 or ω-3) sphinganine chains, whereas none of 11 weak stimulators have such branching. […] These molecules were individually injected into mice (1 μg per mouse, intraperitoneally), and systemic levels of cytokines were quantified and directly compared to those in mice injected with KRN7000 (a prototypic Th1 agonist) and mice injected with OCH (a Th2 agonist). Serum IL-2 levels 2 h after injection show trends consistent with in vitro results (KRN7000>SB2217>SB2219), which implies that BfaGCs are also functioning in vivo (FIG. 3B). […] Although It is well established that aGCs with very long fatty acyl chains (e.g., KRN7000, which has a C26 saturated chain) selectively induce Th1-type cytokines and that shorter-sphingoid-chain aGCs (e.g., OCH, which has a C8 saturated chain) skew toward Th2, aGCs with acyl and sphingoid chain lengths of long-chain fatty acids (C15-C19), prominently identified in B. fragilis, are less well investigated (21).
Mice (n=4 per group) were given 100 uL of KRN7000, OCH, SB2217 or SB2219 solution (1 ug, 0.9% DMSO in PBS) intraperitoneally. Animals were bled at 2 hours after injection from tail vein (˜100 uL per animal). At 18 hours after injection, animals were euthanized and second 100 uL blood was drawn by cardiac puncture. Fresh blood was collected to Z-Gel tubes (Sarstedt) to form blood clot and spun at 10,000×g for 5 minutes for serum separation. Samples were frozen at −80 degree until analysis by multiplex ELISA (Eve Technologies, Calgary, Canada).

[1] = serum at observed time points (2 and 18 hours)

CCCCCCCCCCCCCCCCCCCCCCCCCC(=O)N[C@@H](CO[C@H]1O[C@H](CO)[C@H](O)[C@H](O)[C@H]1O)[C@H](O)[C@H](O)CCCCCCCCCCCCCC [KRN7000]
serum IL-2 level (2 h after injection): KRN7000>SB2217>SB2219
Th1 cytokine (IFN-γ) induction in vivo [1]: stimulates IFN-gamma

CCCCCCCCCCCCCCCCCCCCCCCC(=O)N[C@@H](CO[C@H]1O[C@H](CO)[C@H](O)[C@H](O)[C@H]1O)[C@H](O)[C@H](O)CCCCC [OCH]
Th2 cytokine (IL-4) induction in vivo [1]: stimulates IL-4
